Data published in ChEMBL document CHEMBL1201862, “PubChem BioAssay data set” (2004).
Calls of active or inactive are those of the source.

What was measured:
[1] = biological target: Cytochrome P450 2C9 (Homo sapiens, UniProt P11712)
[2] = biological target: Cytochrome P450 3A4 (Homo sapiens, UniProt P08684);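 further: CYP3A4 tested as one member of a cytochrome P450 panel screen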
[3] = biological target: Voltage-dependent T-type calcium channel subunit alpha-1H (Homo sapiens, UniProt O95180); type: functional;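 further: channel activity triggered by adding a high calcium stimulation buffer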
Chain of Voltage-dependent T-type calcium channel subunit alpha-1H (O95180 whole entry): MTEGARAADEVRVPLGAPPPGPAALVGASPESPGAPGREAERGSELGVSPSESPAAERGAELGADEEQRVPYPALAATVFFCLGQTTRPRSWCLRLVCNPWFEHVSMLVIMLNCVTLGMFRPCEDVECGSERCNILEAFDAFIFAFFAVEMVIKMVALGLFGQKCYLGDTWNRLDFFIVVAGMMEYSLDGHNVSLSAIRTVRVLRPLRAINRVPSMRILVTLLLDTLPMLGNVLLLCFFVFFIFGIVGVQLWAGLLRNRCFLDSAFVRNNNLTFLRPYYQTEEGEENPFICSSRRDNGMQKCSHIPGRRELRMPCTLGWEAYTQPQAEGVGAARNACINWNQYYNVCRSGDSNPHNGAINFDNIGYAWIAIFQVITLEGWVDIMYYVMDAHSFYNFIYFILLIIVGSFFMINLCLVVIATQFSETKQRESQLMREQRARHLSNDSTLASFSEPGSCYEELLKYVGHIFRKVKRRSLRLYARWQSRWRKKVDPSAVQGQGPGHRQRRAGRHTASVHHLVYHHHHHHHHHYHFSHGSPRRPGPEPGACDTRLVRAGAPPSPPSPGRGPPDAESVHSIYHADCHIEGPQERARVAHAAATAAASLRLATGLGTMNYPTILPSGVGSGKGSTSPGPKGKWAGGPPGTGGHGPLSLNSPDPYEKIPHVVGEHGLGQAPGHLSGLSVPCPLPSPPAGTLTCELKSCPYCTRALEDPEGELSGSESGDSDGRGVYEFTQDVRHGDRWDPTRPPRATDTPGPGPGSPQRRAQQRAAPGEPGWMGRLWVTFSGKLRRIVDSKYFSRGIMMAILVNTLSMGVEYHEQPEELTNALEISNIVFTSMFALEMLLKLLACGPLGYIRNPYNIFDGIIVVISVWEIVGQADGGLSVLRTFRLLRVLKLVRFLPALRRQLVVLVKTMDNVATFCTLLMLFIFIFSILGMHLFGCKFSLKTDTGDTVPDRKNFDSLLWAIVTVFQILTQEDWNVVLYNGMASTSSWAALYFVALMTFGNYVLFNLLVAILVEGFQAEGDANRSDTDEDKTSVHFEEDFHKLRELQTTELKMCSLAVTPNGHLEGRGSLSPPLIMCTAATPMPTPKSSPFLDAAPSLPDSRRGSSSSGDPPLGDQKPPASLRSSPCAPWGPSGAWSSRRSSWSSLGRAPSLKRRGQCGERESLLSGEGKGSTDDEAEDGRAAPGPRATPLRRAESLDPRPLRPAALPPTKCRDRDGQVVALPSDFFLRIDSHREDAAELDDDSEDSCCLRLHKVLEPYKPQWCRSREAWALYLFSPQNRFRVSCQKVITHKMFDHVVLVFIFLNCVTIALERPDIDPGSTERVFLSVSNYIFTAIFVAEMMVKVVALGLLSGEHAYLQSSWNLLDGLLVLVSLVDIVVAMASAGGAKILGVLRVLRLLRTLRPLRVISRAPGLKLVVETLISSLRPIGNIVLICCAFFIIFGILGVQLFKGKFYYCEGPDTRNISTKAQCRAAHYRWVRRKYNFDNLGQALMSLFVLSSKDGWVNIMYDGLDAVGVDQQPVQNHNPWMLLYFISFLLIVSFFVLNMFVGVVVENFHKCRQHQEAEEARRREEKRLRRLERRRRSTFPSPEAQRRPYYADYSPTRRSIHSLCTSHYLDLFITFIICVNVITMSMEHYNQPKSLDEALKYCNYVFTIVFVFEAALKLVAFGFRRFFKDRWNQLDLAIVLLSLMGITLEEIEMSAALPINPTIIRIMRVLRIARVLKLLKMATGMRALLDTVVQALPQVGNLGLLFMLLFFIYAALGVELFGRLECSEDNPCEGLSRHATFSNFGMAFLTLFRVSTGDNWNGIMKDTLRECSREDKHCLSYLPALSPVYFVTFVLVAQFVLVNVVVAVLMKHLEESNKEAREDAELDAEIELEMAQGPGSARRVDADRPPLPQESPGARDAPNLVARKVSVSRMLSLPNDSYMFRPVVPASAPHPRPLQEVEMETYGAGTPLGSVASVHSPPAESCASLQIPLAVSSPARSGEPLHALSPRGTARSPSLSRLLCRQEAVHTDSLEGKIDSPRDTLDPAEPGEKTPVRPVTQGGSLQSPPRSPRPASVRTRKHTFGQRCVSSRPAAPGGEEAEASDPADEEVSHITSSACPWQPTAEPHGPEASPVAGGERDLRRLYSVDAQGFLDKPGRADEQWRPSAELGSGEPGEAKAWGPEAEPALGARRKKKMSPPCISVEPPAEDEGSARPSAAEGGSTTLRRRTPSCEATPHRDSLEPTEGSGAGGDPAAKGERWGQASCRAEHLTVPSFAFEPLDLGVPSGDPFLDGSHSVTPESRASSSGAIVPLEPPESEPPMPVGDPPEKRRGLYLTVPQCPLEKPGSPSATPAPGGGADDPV

[4] = microbe, parasite or virus in culture; type: functional; details: Mycobacterium tuberculosis
[5] = biological target: T1, High affinity choline transporter 1 (Homo sapiens, UniProt Q9GZV3); experiment: CHT inhibitors, dose response, cell-based, 10-point CRC, membrane potential dye (AID 588401); type: functional;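 further: membrane potential dye fluorescence of choline-evoked depolarization via CHT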
T1 sequence (Q9GZV3 whole entry): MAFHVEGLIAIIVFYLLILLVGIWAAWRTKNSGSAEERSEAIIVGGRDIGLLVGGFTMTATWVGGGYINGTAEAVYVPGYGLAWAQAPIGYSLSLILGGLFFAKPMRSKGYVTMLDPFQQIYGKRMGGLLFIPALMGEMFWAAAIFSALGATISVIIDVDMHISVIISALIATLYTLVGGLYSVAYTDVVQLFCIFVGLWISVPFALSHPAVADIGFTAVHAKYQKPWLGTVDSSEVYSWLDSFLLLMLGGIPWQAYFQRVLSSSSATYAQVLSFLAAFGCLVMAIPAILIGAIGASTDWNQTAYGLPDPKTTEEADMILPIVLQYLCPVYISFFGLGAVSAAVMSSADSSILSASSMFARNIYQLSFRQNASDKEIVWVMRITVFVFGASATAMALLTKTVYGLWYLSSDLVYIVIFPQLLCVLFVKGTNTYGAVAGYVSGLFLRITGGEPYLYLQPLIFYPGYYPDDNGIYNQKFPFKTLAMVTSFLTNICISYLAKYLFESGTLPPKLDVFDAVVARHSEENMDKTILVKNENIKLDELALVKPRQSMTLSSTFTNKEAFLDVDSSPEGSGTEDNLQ

[6] = biological target: T1, High affinity choline transporter 1; experiment: CHT inhibitors, dose response, cell-based, 5-point CRC, membrane potential dye (AID 504840); type: functional
[7] = biological target: T2, Calpain-2 catalytic subunit (Sus scrofa, UniProt P43367); experiment: pig calpain II inhibitor potency, dose response, biochemical, fluorogenic peptide substrate (AID 1420); type: functional
T2 sequence (P43367 whole entry): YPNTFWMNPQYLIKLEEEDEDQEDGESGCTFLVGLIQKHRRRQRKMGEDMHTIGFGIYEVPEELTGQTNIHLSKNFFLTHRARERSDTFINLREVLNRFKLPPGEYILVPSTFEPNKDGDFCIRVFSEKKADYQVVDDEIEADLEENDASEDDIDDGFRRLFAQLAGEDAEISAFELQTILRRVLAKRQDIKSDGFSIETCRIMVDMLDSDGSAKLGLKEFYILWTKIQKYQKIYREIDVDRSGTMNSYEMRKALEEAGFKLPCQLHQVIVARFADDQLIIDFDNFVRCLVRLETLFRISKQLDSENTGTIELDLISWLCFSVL

[8] = biological target: T3, Cytochrome P450 1A2 (Homo sapiens, UniProt P05177);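 further: PubChem cytochrome P450 panel assay, CYP1A2 panel member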
T3 sequence (P05177 whole entry): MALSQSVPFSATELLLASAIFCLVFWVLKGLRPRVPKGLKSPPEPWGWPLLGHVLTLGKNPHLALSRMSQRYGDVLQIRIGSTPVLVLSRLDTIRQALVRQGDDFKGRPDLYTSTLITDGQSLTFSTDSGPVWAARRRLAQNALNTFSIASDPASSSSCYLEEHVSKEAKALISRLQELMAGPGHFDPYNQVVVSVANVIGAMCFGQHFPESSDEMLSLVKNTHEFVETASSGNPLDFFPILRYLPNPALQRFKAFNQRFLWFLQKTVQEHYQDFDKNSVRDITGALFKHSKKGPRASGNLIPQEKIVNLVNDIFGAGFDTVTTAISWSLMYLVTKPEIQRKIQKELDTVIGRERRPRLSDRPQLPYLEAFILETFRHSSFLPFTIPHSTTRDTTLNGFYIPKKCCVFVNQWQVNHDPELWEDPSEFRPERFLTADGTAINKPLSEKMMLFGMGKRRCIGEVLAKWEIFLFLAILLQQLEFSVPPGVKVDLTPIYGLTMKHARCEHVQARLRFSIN

[9] = inhibitors of firefly luciferase expression or activity, dose response, H4 neuroglioma cells, luminescence (AID 1990); type: functional, cell-based
[10] = inhibitors of SNCA 5'UTR-driven reporter translation, confirmation, H4 neuroglioma cells, luminescence (AID 1988); type: functional, cell-based
[11] = Luminescence Cell-Based Dose Response HTS to Identify Inhibitors of 5'UTR Stem-Loop Driven Prion Protein mRNA Translation in H4 Neuroglioblastoma Cells. [Related pubchem assays: 1827 (Project Summary), 1813 (Primary HTS)]; type: functional
[12] = biological target: Cytochrome P450 2D6 (Homo sapiens, UniProt P10635);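 further: CYP2D6 member of a cytochrome P450 panel assay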
Chain of Cytochrome P450 2D6 (P10635 whole entry): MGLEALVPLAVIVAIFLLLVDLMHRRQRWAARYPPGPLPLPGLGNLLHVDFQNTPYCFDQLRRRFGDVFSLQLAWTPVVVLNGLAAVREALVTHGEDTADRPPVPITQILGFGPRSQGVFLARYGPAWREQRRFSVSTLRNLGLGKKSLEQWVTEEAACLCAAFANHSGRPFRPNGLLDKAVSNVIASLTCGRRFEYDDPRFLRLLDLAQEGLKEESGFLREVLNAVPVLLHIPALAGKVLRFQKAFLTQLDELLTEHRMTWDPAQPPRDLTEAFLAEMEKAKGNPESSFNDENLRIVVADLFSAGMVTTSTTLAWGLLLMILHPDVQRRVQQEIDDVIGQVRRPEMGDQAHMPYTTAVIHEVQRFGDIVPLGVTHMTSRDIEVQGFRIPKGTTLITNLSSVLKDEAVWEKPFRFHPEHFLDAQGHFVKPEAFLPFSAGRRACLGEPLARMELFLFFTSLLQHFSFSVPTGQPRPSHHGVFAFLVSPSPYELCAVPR

[13] = biological target: T4, Short transient receptor potential channel 4 (Mus musculus, UniProt Q9QUQ5); experiment: mouse TRPC4 channel activators, dose response, cell-based, HEK293 TRPC4/mu-opioid, Fluo-4 calcium (AID 434937); type: functional
T4 sequence (Q9QUQ5 whole entry): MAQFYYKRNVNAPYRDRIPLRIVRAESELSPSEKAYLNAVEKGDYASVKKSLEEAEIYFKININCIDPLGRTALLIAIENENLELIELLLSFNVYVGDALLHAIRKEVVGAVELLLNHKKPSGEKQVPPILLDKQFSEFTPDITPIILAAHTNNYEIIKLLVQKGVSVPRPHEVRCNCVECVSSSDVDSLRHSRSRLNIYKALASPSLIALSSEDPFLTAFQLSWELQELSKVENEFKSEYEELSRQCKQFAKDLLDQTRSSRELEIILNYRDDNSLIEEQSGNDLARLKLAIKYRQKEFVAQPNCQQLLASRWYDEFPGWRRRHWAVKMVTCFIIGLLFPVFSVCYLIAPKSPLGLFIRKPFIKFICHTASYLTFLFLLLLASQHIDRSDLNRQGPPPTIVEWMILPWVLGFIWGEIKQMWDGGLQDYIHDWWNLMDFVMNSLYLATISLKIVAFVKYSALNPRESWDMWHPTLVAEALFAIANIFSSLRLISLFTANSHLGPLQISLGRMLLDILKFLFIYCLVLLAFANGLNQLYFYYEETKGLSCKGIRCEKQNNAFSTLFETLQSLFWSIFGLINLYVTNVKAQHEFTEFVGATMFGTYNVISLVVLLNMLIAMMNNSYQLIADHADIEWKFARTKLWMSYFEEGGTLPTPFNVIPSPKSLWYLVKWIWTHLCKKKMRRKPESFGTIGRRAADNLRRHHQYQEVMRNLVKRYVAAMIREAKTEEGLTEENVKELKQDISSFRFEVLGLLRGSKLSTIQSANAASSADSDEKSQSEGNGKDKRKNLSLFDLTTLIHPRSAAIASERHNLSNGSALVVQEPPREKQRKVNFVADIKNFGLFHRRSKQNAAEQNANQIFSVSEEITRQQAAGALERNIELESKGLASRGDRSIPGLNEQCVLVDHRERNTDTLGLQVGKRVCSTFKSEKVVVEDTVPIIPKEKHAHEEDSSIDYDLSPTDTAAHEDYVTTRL

[14] = test system: H4; experiment: Luminescence Cell-Based Dose Response HTS to Identify Activators of 5'UTR Stem-Loop Driven Prion Protein mRNA Translation in H4 Neuroglioblastoma Cells. [Related pubchem assays: 1829 (Project Summary), 1814 (Primary HTS)]; type: functional; details: Homo sapiens
[15] = Luminescence Cell-Based Dose Response HTS to Identify Activators of Luciferase Translation or Activity in H4 […] Cells. [Related pubchem assays: 1829 (Project Summary), 1814 (Primary HTS)]; type: functional
[16] = biological target: Luciferin 4-monooxygenase (Photinus pyralis, UniProt P08659); experiment: firefly luciferase enzyme inhibitors, dose response, biochemical, luminescence (AID 1891)
Chain of Luciferin 4-monooxygenase (P08659 whole entry): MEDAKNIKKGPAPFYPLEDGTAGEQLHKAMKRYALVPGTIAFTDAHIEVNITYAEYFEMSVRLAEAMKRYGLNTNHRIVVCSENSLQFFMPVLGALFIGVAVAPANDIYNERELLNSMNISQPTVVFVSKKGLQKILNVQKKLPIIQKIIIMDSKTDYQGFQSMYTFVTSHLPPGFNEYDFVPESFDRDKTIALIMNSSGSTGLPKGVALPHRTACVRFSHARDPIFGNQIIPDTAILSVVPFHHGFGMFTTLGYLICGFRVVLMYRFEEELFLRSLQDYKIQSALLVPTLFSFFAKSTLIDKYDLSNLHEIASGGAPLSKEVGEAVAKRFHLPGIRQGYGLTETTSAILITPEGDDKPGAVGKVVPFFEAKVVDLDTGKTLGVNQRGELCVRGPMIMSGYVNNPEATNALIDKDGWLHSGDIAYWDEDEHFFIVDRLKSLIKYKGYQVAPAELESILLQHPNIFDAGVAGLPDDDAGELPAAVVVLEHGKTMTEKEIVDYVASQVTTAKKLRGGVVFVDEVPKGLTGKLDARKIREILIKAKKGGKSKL

[17] = Luminescence Cell-Based Dose Confirmation HTS to Identify Inhibitors of Platelet Dense Granule Release. [Related pubchem assays: 1663 (Primary HTS), 1678 (Summary of Project)]; type: functional
[18] = test system: Vero; experiment: cells; type: functional; details: Chlorocebus sabaeus
[19] = growth suppression of PTEN-null colon cells, dose response, cell-based, HCT116 PTEN knockout (AID 1047); type: functional;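 further: HCT116 colon tumor cells with PTEN knocked out; cells exposed to compound for 60 hours before readout; potency for loss of cell viability measured by luminescence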
[20] = growth suppression of beta-catenin-knockout colon cells, dose response, cell-based, HCT116, human colon tumor (AID 1045); type: functional;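 further: HCT116 colon tumor cells with beta catenin knocked out; cells exposed to compound for 60 hours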
[21] = test system: H9c2; experiment: cells; type: functional, cell-based; details: Rattus norvegicus, H9c2, Myocardium;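 further: confirmatory concentration-response retest of ultra-high-throughput screening hits for modulation of myocardial damage; cell death induced by hydrogen peroxide oxidative stress; compound pretreatment for 60 min then peroxide exposure for 2 h; potency is for protecting the cells against peroxide damage rather than for killing them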
[22] = cytotoxicity toward NIH3T3 fibroblasts, dose response, counter-screen, cell-based, ATP luminescence, mouse fibroblasts (AID 2010); type: functional;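 further: cells exposed to compound for about 90 hours before reading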
[23] = inhibitors of intracellular T. cruzi replication, confirmation, NIH3T3 host cells, beta-gal luminescence (AID 2044); type: functional, cell-based;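 further: intracellular parasites grown in NIH/3T3 mouse fibroblasts as host cells; luminescent beta-galactosidase reporter signal from transgenic T. cruzi replicating inside host cells; inhibitors lower the luminescence signal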
[24] = HEp-2 cell cytotoxicity, dose response, cytotoxicity control for RSV inhibitor project, HTS (AID 2410); type: functional; details: human respiratory syncytial virus

Chain of Cytochrome P450 2C9 (P11712 whole entry): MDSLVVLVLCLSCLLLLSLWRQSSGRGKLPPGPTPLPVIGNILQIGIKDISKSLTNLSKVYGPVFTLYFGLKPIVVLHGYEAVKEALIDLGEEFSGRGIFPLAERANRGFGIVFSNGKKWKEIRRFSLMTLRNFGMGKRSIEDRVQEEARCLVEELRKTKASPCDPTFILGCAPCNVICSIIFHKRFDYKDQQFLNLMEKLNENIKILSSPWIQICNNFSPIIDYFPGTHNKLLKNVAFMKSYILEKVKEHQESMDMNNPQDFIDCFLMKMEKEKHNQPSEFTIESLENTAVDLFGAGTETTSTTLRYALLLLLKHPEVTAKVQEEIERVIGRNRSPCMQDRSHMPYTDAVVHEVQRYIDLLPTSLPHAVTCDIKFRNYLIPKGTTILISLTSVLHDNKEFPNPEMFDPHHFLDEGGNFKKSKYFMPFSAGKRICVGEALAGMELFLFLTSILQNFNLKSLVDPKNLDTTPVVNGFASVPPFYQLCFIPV
Chain of Cytochrome P450 3A4 (P08684 whole entry): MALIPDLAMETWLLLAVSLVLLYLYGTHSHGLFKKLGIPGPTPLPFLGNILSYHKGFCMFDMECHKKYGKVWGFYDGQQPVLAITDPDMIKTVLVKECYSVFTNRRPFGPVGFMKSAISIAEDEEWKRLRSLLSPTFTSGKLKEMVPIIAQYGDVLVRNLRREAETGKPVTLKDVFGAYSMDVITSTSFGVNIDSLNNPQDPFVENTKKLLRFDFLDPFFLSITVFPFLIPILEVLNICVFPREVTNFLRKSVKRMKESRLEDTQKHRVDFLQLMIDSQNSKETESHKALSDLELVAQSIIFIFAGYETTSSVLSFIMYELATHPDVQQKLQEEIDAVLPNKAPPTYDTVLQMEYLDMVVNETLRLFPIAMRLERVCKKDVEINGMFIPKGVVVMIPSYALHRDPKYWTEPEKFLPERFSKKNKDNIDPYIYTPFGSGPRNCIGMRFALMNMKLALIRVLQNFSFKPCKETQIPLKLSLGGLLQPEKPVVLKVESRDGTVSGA

## Nc1ccc2c3c(cccc13)C(=O)NC2=O
[1]
  AC50: inconclusive
[2]
  AC50: 3.16 µM (inconclusive)

## COc1cccc(NC(=O)C2CCN(Cc3cnn(-c4ccccc4)c3-n3cccc3)CC2)c1
[3]
  EC50: 2.29 µM (active)
[4]
  CC50: 14.6 µM (active)

## CCc1nnc(NS(=O)(=O)c2ccc(NC(=O)c3ccc(Br)cc3)cc2)s1
[5]
  IC50: 10 µM (active)
[6]
  IC50: 4.45 µM (active)

## O=C(Nc1ccccc1C(=O)NCCCn1ccnc1)c1ccccc1
[5]
  IC50: 1.5 µM (active)
[6]
  IC50: 5.59 µM (active)

## Cn1c(=O)c(C#N)c(-c2ccc(F)cc2)c2cc(C(=O)c3cc(Cl)cc(Cl)c3O)cnc21
[5]
  IC50: 7.08 µM (active)
[6]
  IC50: 6.95 µM (active)

## Cc1ccccc1NS(=O)(=O)c1cc(C(=O)Nc2ccccc2-c2ccccc2)ccc1Cl
[3]
  EC50: 3.95 µM (active)

## Cc1nn2c(NCCOCCO)c3c(nc2c1-c1ccccc1)CCCC3
[5]
  IC50: 11.2 µM (active)
[6]
  IC50: 3.43 µM (active)

## COC(=O)Cn1c(CN2CCN(c3ccc(F)cc3)CC2)nc2c1c(=O)n(C)c(=O)n2C
[5]
  IC50: 1.15 µM (active)
[6]
  IC50: 3.59 µM (active)

## Cc1cccc(OCCCSc2nc3ccc(C)cc3[nH]2)c1
[3]
  EC50: 3.92 µM (active)
[7]
  IC50: 24.9 µM (not active)

## Cc1sc[n+](CC(=O)c2ccc(Br)cc2)c1C
[5]
  IC50: 3.76 µM (active)
[6]
  IC50: 8.46 µM (active)

## CCN(CC)S(=O)(=O)c1ccc2oc(C(=O)NCc3ccc(F)cc3)c(C)c2c1
[3]
  EC50: 3.18 µM (active)

## COc1cc(Br)cc2cc(C(=O)NCC3CCCO3)c(=O)oc12 (stereo not given)
[8]
  AC50: 3.55 µM (inconclusive)
[1]
  AC50: inconclusive

## CCNC(=O)c1ccc(-n2nc(C(F)(F)F)c3c2CCCC3)cc1
[8]
  AC50: 25.1 µM (inconclusive)
[1]
  AC50: inconclusive
[9]
  EC50: 18.1 µM (active)
[10]
  EC50: > 120 µM (not active)
[11]
  EC50: 41.9 µM (active)
[12]
  AC50: 8.91 µM (inconclusive)

## O=C(CC(=O)c1c(F)cccc1Cl)c1ccccc1O
[13]
  EC50: 10.6 µM (active)

## CN1C(=C2C(=O)OC(C)(C)OC2=O)Sc2ccccc21
[1]
  AC50: inconclusive
[14]
  EC50: > 120 µM (not active)
[15]
  EC50: 0.122 µM (active)

## COc1cc(OC)cc(C(=O)NCCCN2CCN(CCCNC(=O)c3cc(OC)cc(OC)c3)CC2)c1
[16]
  EC50: > 112 µM (not active)
[17]
  EC50: > 112 µM (not active)
[13]
  EC50: 0.188 µM (active)

## CN(C)c1nc(-c2ccccc2C(F)(F)F)nc2ccccc12
[1]
  AC50: inconclusive

## COc1cc(OC)cc(C(=O)NC(=S)NNC(=O)[C@H]2C[C@@H]2c2ccccc2)c1
[18]
  CC50: 23.8 µM (active)
[13]
  EC50: 2.99 µM (active)

## COc1ccccc1CN(Cc1nc(O)c2ccccc2n1)S(=O)(=O)c1ccc2ccccc2c1
[19]
  EC50: 16.7 µM (active)
[20]
  EC50: 17.4 µM (active)
[18]
  CC50: > 25 µM (active)
[21]
  IC50: 20.5 µM (active)

## Cn1c(=O)c2c(nc(CN3CCc4ccccc4C3)n2Cc2ccccc2F)n(C)c1=O
[13]
  EC50: 5.31 µM (active)

## CCCc1n[nH]c2c1C(C1CC=CCC1)C(C#N)=C(N)O2 (stereo not given)
[19]
  EC50: 33.2 µM (active)
[20]
  EC50: 139 µM (active)
[18]
  CC50: > 25 µM (active)

## CC(C)(C)n1nnnc1C(c1cccs1)N(Cc1ccc(Cl)cc1)CC1CCCO1 (stereo not given)
[3]
  EC50: 8.19 µM (active)
[22]
  EC50: > 60 µM (not active)
[23]
  EC50: 2.41 µM (active)

## Cc1ccc(N2CCN(C(=O)CCc3nc4ccccc4[nH]3)CC2)c(C)c1
[3]
  EC50: 3.27 µM (active)
[24]
  CC50: 13.6 µM (active)

## Cc1nccn1CC1CCc2c(c3ccccc3n2C)C1=O (stereo not given)
[5]
  IC50: 1.35 µM (active)
[6]
  IC50: 1.67 µM (active)

## N=C(NC(=O)c1ccccc1)N1CCN(C(c2ccccc2)c2ccccc2)CC1
[18]
  CC50: > 25 µM (active)

## Cc1ccc(SCCC(=O)NCCSCc2ccccc2C)cc1
[3]
  EC50: 2.87 µM (active)
